Our source for the activity change, negative = inhibition and AC50 values is PubChem BioAssay AID588396 (Broad Institute, 2011).

“And” between values parts separate entries of the source, which are not always exact repeats. Equal values may be shown once. Inconclusive results are not listed. The source made the active and inactive calls.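 How the source made its calls: active means loss of yeast growth signal with half-maximal concentration no more than ten times the top tested dose, in every run; inconclusive means runs disagree, or a weak flat curve or poor fit; inactive means inactive in every run.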

Test system in the first test: not listed separately
As to the kind of experiment: growth inhibition of yeast expressing PfHsp90, dose response, antimalarial PfHsp90 inhibitor project, S. cerevisiae, BacTiter-Glo luminescence, dry powder samples (AID 588396). As to conditions: S. cerevisiae expressing PfHsp90, BacTiter-Glo ATP luminescence, 48 h; at 26 µM (top of the series).
As to `Cc1ccc(N2C(=O)C3C4C=CC(CNC(=S)Nc5cccc(Cl)c5)(O4)C3C2=O)cc1` (stereo not given), the activity change, negative = inhibition is -41.4% (inactive).
On to `COc1ccc2c(c1)[nH]c1c(C)nccc12`, for which the activity change, negative = inhibition is 217% (inactive).
Consider `Nc1c2ccccc2nc2ccccc12` (tested in a mixture with another compound), for which the activity change, negative = inhibition is 51.8% (inactive) and 38.4% (inactive).
The same measure, in the same setting: for `O=C1C(Cl)=C(NCCc2ccccc2)C(=O)c2ccccc21` the value was 1.42% (inactive).

A further test has as its system S. cerevisiae expressing PfHsp90, BacTiter-Glo ATP luminescence, 48 h. The description is as above.
Settings: not given
For the compound `Cc1ccc(N2C(=O)C3C4C=CC(CNC(=S)Nc5ccc(F)cc5)(O4)C3C2=O)cc1` (stereo not given), the half-maximal activity concentration (AC50) was 26.3 µM.
Still for that read-out and setting: for `O=C(O)/C=C/c1cn(-c2ccccc2)nc1-c1cc2ccccc2o1` the value was 9.7 µM; for `O=C1C(Cl)=C(Oc2ccccc2)C(=O)c2ccccc21`, 0.974 µM.
With `CCOc1cc(S(=O)(=O)NC2CCCCCC2)ccc1F`, the AC50 was 7.34 µM.
Same read-out and setting: for `O=C(CSCC(=O)N1CCCCC1)Nc1nc(-c2ccc(Cl)s2)cs1` the value was 14.5 µM; for `COc1ccc2c(c1)C=C(C(=O)NCc1ccc(Cl)cc1)CO2`, 8.85 µM.
Same read-out and setting: for `CCN(CC)c1ccc(/C=C2/SC(=O)N(C(C)C)C2=O)o1` the value was 12.2 µM; for `O=S(=O)(/C=C/c1ccccc1)NC1CCCCCCC1`, 6.52 µM.
Consider `Cc1ccc(O)c(NC(=S)NC(=O)c2ccc(-c3ccc(Cl)cc3)o2)c1`, for which the AC50 is 6.37 µM.
The same measure, in the same setting: as for `O=S(=O)(NC1CCCCCC1)c1ccc(Br)s1`, the figure is 1.34 µM.
Same read-out and setting: for `O=S(=O)(NC1CC2CCC1C2)c1ccc(Cl)cc1` (stereo not given) the value was 3.25 µM.

Broadly, the AC50 is the midpoint of the concentration-response curve, whichever way the signal moves.
